Results taken from PMC4441091 (Chemical & pharmaceutical bulletin, 2014).

The molecules below were run against T1, FASN-TE; rTE (recombinant TE domain of human FASN) (Homo sapiens, UniProt P49327) (assay: fluorogenic thioesterase assay). Settings: not given.
Format: biochemical

T1 sequence (P49327 2218-2511 limits assumed): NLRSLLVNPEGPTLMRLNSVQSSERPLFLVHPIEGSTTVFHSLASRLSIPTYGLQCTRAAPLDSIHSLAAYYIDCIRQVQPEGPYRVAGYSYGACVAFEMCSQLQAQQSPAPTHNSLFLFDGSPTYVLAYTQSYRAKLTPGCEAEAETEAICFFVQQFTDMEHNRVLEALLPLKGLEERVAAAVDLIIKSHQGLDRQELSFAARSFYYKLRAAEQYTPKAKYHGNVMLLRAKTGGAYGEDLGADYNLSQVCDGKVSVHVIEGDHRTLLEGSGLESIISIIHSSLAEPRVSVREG

| SMILES | IC50 |
| --- | --- |
| CC1=CC(=O)c2ccccc2C1=O [1c, menadione] | 21.9 µM |
| CC1=CC(=O)c2c(O)cccc2C1=O [1d, plumbagin] | 10.9 µM |
| O=C1C=CC(=O)c2c(O)cccc21 [1g, juglone] | 0.1 µM |
| O=C1C=C(N2CCOCC2)C(=O)c2c(O)cccc21 [1h, 8-Hydroxy-2-morpholinonaphthalene-1,4-dione] | 26.4 µM |
| O=C1C=CC(=O)C(SC2CCCC2)=C1 [2e, 2-(Cyclopentylthio)cyclohexa-2,5-diene-1,4-dione] | 6.4 µM |
| CCCCCCCSC1=CC(=O)C=CC1=O [2f, 2-(Heptylthio)cyclohexa-2,5-diene-1,4-dione] | 6.2 µM |
| O=C1C=CC(=O)C(Sc2ccccc2)=C1 [2g, 2-(Phenylthio)cyclohexa-2,5-diene-1,4-dione] | 0.2 µM |

Same assay, conditions: read-out: rTE IC50; substrate 4-methylumbelliferyl heptanoate

| SMILES | IC50 |
| --- | --- |
| CC1=C(Br)C(=O)c2ccccc2C1=O [1a, NS-4390] | 12.5 µM |

Molecular target: T1, FASN-TE; rTE (recombinant TE domain of human FASN)
Test: fluorogenic thioesterase assay
Format: biochemical
Settings: not given
Remark: another data set of the same source

| SMILES | IC50 |
| --- | --- |
| O=C1C=CC(=O)c2c(O)ccc(O)c21 [1i, naphthazarin] | 3.5 µM |
